According to patent US9802885B2, “Substituted cyclohexane compounds” (TAKASAGO INTERNATIONAL CORPORATION (USA), priority 2011, dated 2017):
“Also recorded” adds a separate entry of the source.

Key:
trained evaluators [1] = assay: Enhancement of the warming effect of vanillyl butyl ether (VBE), heat intensity and preference (Example 20); type: in vivo
Method: Compound 1 was tested for its synergistic enhancement of the warming effect from pungent compound vanillyl butyl ether (VBE). A stock solution of 1% VBE in ethanol was prepared. This stock solution was then added at 0.2% in water to produce a 20 ppm tasting solution (Control). To subsequent 20 ppm tasting solutions was added 2.5 ppm of Compound 1 (Formula G) and 2.5 ppm WS-3 (Formula H). Ten trained evaluators were asked to rate heat intensity in the mouth and rank the three samples for preference after swishing and spitting the sample.

[2] = Organoleptic properties of the compounds of Formulas I, II and III (Tables 1-3); conditions: in vivo
Excerpt: For example, the compounds of the presently disclosed subject matter impart cooling, warming, burning, tingling, numbing, salivating, musty, bitter, and/or astringent sensation. In addition, the compounds of the presently disclosed subject matter can impart tropical, fruity (e.g., berry), minty, phenolic, and vegetable (e.g., peppery) notes as well as creaminess and sweetness to flavor ingredients. The organoleptic properties of certain compounds of Formulas I, II, and III are described in Tables 1, 2, and 3, respectively.

trained evaluators [3] = assay: Rated warming level of hot and spicy flavor composition in water, swish and spit (Example 17); type: in vivo
Method: Each evaluator was asked to rate the warming level in the mouth on a scale of 1-9 over a 5 minute period after swishing & spitting the sample.

trained evaluators [4] = assay: Tasting of wasabi-type flavor composition in water (Example 18); type: in vivo
Excerpt: Formula C was selected as being preferred by 7 out of the 8 evaluators.

[5] = system: expertly trained evaluators; assay: Rated cooling intensity of mouth-rinse composition (Example 21); type: in vivo
Method: Compound 8 was tested in the following mouth-rinse composition Formula J and evaluated over a 20 minute period by five expertly trained evaluators, compared to two other mint flavor compositions, a Control and Formula K that contains WS-3 as shown below. The compositions were each dissolved at 0.1% in the following mouth-rinse base (50 ppm dosage of Compound 8 & WS-3 respectively). The evaluators were asked to rate cooling intensity on a scale of 1-9 in the mouth at 0, 0.5, 1, 5, 10, and 20 minutes.

[6] = system: expertly trained evaluators; assay: Tasting of mouthwatering composition in water (Example 19); type: in vivo; conditions: 0.5% w/w Compound 10, 0.05% in water (2.5 ppm)
[7] = generally known; cited from earlier work

With `C=C(C)[C@@H]1CC[C@@H](C)C[C@H]1C(=O)NCC` [Compound 1, (1R,2R,5R)—N-ethyl-5-methyl-2-(prop-1-en-2-yl)cyclohexanecarboxamide] as the compound, how does the “enhancement of the warming effect of pungent compounds compared to WS-3” value (trained evaluators [1]) read?
The value was “enhances the warming effect of pungent compounds much better”.

And the “Organoleptic Properties” value [2]?
Its value is “cooling, tingling, and numbing sensation”.

And the “heat/warming perception compared to control Formula B” value (trained evaluators [3]; 0.5% w/w Compound 1)?
Its value is “enhance the initial heat perception”.

And the “heat/warming perception compared to control Formula B” value (trained evaluators [3]; 0.5% w/w Compound 1, listed as N-ethyl-5-methyl-2-(prop-1-en-2-yl)cyclohexanecarboxamide)?
Its value is “enhances the warming perception”.

For `C=C(C)[C@@H]1CC[C@@H](C)C[C@H]1C(=O)NC1CC1` [Compound 2, (1R,2R,5R)—N-cyclopropyl-5-methyl-2-(prop-1-en-2-yl)cyclohexanecarboxamide], which “Organoleptic Properties” value [2] is on record?
The value was “slight cooling, salivating”.

With `C=C(C)[C@@H]1CC[C@@H](C)C[C@H]1C(=O)NC(C)C` [Compound 3, (1R,2R,5R)—N-isopropyl-5-methyl-2-(prop-1-en-2-yl)cyclohexanecarboxamide] as the compound, how does the “Organoleptic Properties” value [2] read?
Its value is “slight cooling”.

With `C=C(C)[C@@H]1CC[C@@H](C)C[C@H]1C(=O)NC(C)(C)C` [Compound 4, (1R,2R,5R)—N-(tert-butyl)-5-methyl-2-(prop-1-en-2-yl)cyclohexanecarboxamide] as the compound, how does the “Organoleptic Properties” value [2] read?
The value was “slight burn, warming,; also recorded: irritation”.

For `C=C(C)[C@@H]1CC[C@@H](C)C[C@H]1C(=O)NC(C)CC` (stereo partly drawn) [Compound 5, (1R,2R,5R)—N-(sec-butyl)-5-methyl-2-(prop-1-en-2-yl)cyclohexanecarboxamide], which “Organoleptic Properties” value [2] is on record?
The value was “bitter, cooling”.

For `C=C(C)[C@@H]1CC[C@@H](C)C[C@H]1C(=O)NCC(=O)OCC` [Compound 6, (1R,2R,5R)-ethyl 2-(5-methyl-2-(prop-1-en-2-yl)cyclohexanecarboxamido)acetate], which “Organoleptic Properties” value [2] is on record?
The value was “bitter, cooling, irritation”.

For `C=C(C)[C@@H]1CC[C@@H](C)C[C@H]1C(=O)Nc1ccc(OC)cc1` [Compound 7, (1R,2R,5R)—N-(4-methoxyphenyl)-5-methyl-2-(prop-1-en-2-yl)cyclohexanecarboxamide], which “Organoleptic Properties” value [2] is on record?
The value was “musty, astringent, slight cooling”.

What does the source list for `C=C(C)[C@@H]1CC[C@@H](C)C[C@H]1C(=O)Nc1ccc(CC#N)cc1` [Compound 8, (1R,2R,5R)—N-(4-(cyanomethyl)phenyl)-5-methyl-2-(prop-1-en-2-yl)cyclohexanecarboxamide]?
Organoleptic Properties [2]: phenolic, strong burning; burning sensation and character compared to control Formula D (trained evaluators [4]; 0.5% w/w Compound 8): more intense and lingering burning sensation; burning sensation and character compared to control Formula D (trained evaluators [4]; 0.5% w/w Compound 8, listed as N-(4-(cyanomethyl)phenyl)-5-methyl-2-(prop-1-en-2-yl)cyclohexanecarboxamide): improved lingering burning sensation; cooling perception of the mouth-rinse composition compared to Control and WS-3 (Formula K) [5]: enhances and lengthens the cooling of a mouth-rinse composition better than WS-3

Which “Organoleptic Properties” value [2] does the source give for `C=C(C)[C@@H]1CC[C@@H](C)C[C@H]1OC(=O)CCC(=O)O` [Compound 9, (1R,2S,5R)-4-((−5-methyl-2-(prop-1-en-2-yl)cyclohexyl)oxy)-4-oxobutanoic acid] here?
The value was “fruity, chemical, slight; also recorded: cooling/burn”.

Which “Organoleptic Properties” value [2] does the source give for `C=C(C)[C@@H]1CC[C@@H](C)C[C@H]1OC(=O)CCCC(=O)O` [Compound 10, (1R,2S,5R)-5-((−5-methyl-2-(prop-1-en-2-yl)cyclohexyl)oxy)-5-oxopentanoic acid] here?
The value was “sweet, fruity, slight; also recorded: cooling”.

What about the “mouthwatering effect compared to control Formula F” value [6] of the same compound?
Its value is “extended cooling and increased astringency”.

For `C=C(C)[C@@H]1CC[C@@H](C)C[C@H]1OC(=O)C(C)O` (stereo partly drawn) [Compound 11, (1R,2S,5R)-5-methyl-2-(prop-1-en-2-yl)cyclohexyl 2-hydroxypropanoate], which “Organoleptic Properties” value [2] is on record?
Its value is “minty, bitter, cooling”.

Which “Organoleptic Properties” value [2] does the source give for `C=C(C)[C@@H]1CC[C@@H](C)C[C@H]1OC(=O)CC(C)=O` [Compound 12, (1R,2S,5R)-5-methyl-2-(prop-1-en-2-yl)cyclohexyl 3-oxobutanoate] here?
Its value is “bitter, fruity”.

With `C=C(C)[C@@H]1CC[C@@H](C)C[C@H]1OC(=O)CC(C)O` (stereo partly drawn) [Compound 13, (1R,2S,5R)-5-methyl-2-(prop-1-en-2-yl)cyclohexyl 3-hydroxybutanoate] as the compound, how does the “Organoleptic Properties” value [2] read?
The value was “bitter, mild peppery”.

With `C=C(C)[C@@H]1CC[C@@H](C)C[C@H]1OCC(=O)O` [Compound 14, (1R,2S,5R)-2-((5-methyl-2-(prop-1-en-2-yl)cyclohexyl)oxy)acetic acid] as the compound, how does the “Organoleptic Properties” value [2] read?
Its value is “creamy; also recorded: fruity,”.

Which “Organoleptic Properties” value [2] does the source give for `C=C(C)[C@@H]1CC[C@@H](C)C[C@H]1OCC(=O)NCC(C)C` [Compound 15, (1R,2S,5R)—N-isobutyl-2-((5-methyl-2-(prop-1-en-2-yl)cyclohexyl)oxy)acetamide] here?
The value was “bitter,; also recorded: tingle/; also recorded: burning”.

With `CCNC(=O)C1CC(C)CCC1C(C)C` (centres unmarked) [WS-3, N-ethyl-5-methyl-2-isopropylcyclohexanecarboxamide] as the compound, how does the “sensation provided by menthyl analog” value [7] read?
Its value is “clean cool”.
